Active and inactive are the calls of the source. The calls are words filed in the database; no cut-off is given here.
Columns and labels:
Staphylococcus aureus [1] = assay: Antibacterial activity against methicillin-resistant Staphylococcus aureus CGMCC1.12409 in presence of Mg2+ (reference value: 0.5 ug/ml); format: functional
Staphylococcus aureus [2] = assay: Induction of membrane depolarization in Staphylococcus aureus CGMCC1.8721 by DiSC3(5) dye based analysis; format: functional, organism-based
Staphylococcus aureus [3] = assay: Bactericidal activity against methicillin-resistant Staphylococcus aureus CGMCC1.12409 by CLSI based method; format: functional
Staphylococcus aureus [4] = assay: Antibacterial activity against Staphylococcus aureus CGMCC1.8721 at pH 8 (reference value: 0.5 ug/ml); format: functional
Staphylococcus aureus [5] = assay: Induction of morphological change in Staphylococcus aureus CGMCC1.8721 assessed as appearance of atrophy at MIC by […] SEM analysis; format: functional, organism-based
Staphylococcus aureus [6] = assay: Induction of morphological change in Staphylococcus aureus CGMCC1.8721 assessed as cell rupture at 4 times MIC by […] SEM analysis; format: functional, organism-based
Staphylococcus aureus [7] = assay: Antibacterial activity against methicillin-resistant Staphylococcus aureus ATCC 43300 at pH 8 (reference value: 0.5 ug/ml); format: functional
Staphylococcus aureus [8] = assay: Antibacterial activity against methicillin-resistant Staphylococcus aureus ATCC 33591 in presence of K+ (reference value: 1 ug/ml); format: functional
Staphylococcus aureus [9] = assay: Antibacterial activity against methicillin-resistant Staphylococcus aureus ATCC 33591 in presence of H2PO4- (reference value: 1 ug/ml); format: functional
Staphylococcus aureus [10] = assay: Antibacterial activity against Staphylococcus aureus CGMCC1.8721 in presence of Fe3+ (reference value: 0.5 ug/ml); format: functional
Staphylococcus aureus [11] = assay: Antibiofilm activity against Staphylococcus aureus CGMCC1.8721 at 4 times MIC by crystal violet staining based analysis relative to control; format: functional
Staphylococcus aureus [12] = assay: Antibacterial activity against methicillin-resistant Staphylococcus aureus ATCC 43300; format: functional
Staphylococcus aureus [13] = assay: Antibacterial activity against Staphylococcus aureus CGMCC1.8721 in presence of ATP; format: functional, organism-based
Staphylococcus aureus [14] = assay: Antibacterial activity against methicillin-resistant Staphylococcus aureus CGMCC1.12409; format: functional
Staphylococcus aureus [15] = assay: Inhibition of metabolic activity in Staphylococcus aureus CGMCC1.8721; format: functional, organism-based
Staphylococcus aureus [16] = assay: Antibacterial activity against Staphylococcus aureus CGMCC1.8721 in presence of Fe2+ (reference value: 0.5 ug/ml); format: functional
Staphylococcus aureus [17] = assay: Antibacterial activity against Staphylococcus aureus CGMCC1.8721 in presence of Mg2+ (reference value: 0.5 ug/ml); format: functional
Staphylococcus aureus [18] = assay: Antibacterial activity against methicillin-resistant Staphylococcus aureus ATCC 33591 at pH 6.5 (reference value: 1 ug/ml); format: functional
Staphylococcus aureus [19] = assay: Induction of inner membrane permeability in Staphylococcus aureus CGMCC1.8721 assessed as increase in red fluorescence intensity by PI staining based analysis; format: functional, organism-based
Staphylococcus aureus [20] = assay: Antibacterial activity against methicillin-resistant Staphylococcus aureus CGMCC1.12409 at pH 8 (reference value: 0.5 ug/ml); format: functional
[21] = Selectivity index, ratio of HC50 for hemolytic activity in rabbit RBC to MIC for antibacterial activity against Staphylococcus aureus; format: toxicity, cell-based; conditions: rabbit red blood cells
Staphylococcus aureus [22] = assay: Bactericidal activity against methicillin-resistant Staphylococcus aureus ATCC 33591 by CLSI based method; format: functional
Staphylococcus aureus [23] = assay: Antibacterial activity against Staphylococcus aureus CGMCC1.8721 in presence of dNTP; format: functional, organism-based
Staphylococcus aureus [24] = assay: Antibacterial activity against Staphylococcus aureus CGMCC1.8721 in presence of Zn2+ (reference value: 0.5 ug/ml); format: functional
Staphylococcus aureus [25] = assay: Antibacterial activity against methicillin-resistant Staphylococcus aureus ATCC 43300 at 36.5 degreeC (reference value: 0.5 ug/ml); format: functional
HepG2 = assay: Cytotoxicity against human HepG2 cells at 40 uM by CCK8 assay relative to control; format: toxicity, cell-based; conditions: hepg2, 40 µM
Staphylococcus aureus [26] = assay: Antibacterial activity against methicillin-resistant Staphylococcus aureus CGMCC1.12409 in presence of Fe2+ (reference value: 0.5 ug/ml); format: functional
Staphylococcus aureus [27] = assay: Antibacterial activity against methicillin-resistant Staphylococcus aureus ATCC 33591 in presence of Na+ (reference value: 1 ug/ml); format: functional
Staphylococcus aureus [28] = assay: Bactericidal activity against methicillin-resistant Staphylococcus aureus ATCC 43300 by CLSI based method; format: functional
Staphylococcus aureus [29] = assay: Antibacterial activity against methicillin-resistant Staphylococcus aureus CGMCC1.12409 at pH 6.5 (reference value: 0.5 ug/ml); format: functional
Staphylococcus aureus [30] = assay: Antibacterial activity against methicillin-resistant Staphylococcus aureus ATCC 33591 at 37.5 degreeC (reference value: 1 ug/ml); format: functional
Staphylococcus aureus [31] = assay: Antibacterial activity against Staphylococcus aureus CGMCC1.8721 in presence of Ca2+ (reference value: 0.5 ug/ml); format: functional
Staphylococcus aureus [32] = assay: Antibacterial activity against Staphylococcus aureus CGMCC1.8721 in presence of phosphatidylglycerol; format: functional, organism-based
Staphylococcus aureus [33] = assay: Antibacterial activity against methicillin-resistant Staphylococcus aureus ATCC 43300 in presence of H2PO4- (reference value: 0.5 ug/ml); format: functional
Staphylococcus aureus [34] = assay: Antibacterial activity against methicillin-resistant Staphylococcus aureus ATCC 43300 in presence of K+ (reference value: 0.5 ug/ml); format: functional
Staphylococcus aureus [35] = assay: Antibacterial activity against methicillin-resistant Staphylococcus aureus CGMCC1.12409 infected in mouse model assessed as reduction in abscesses size at 5 to 10 mg/kg measured for 5 days; format: functional, organism-based; conditions: dose 5-10 mg/kg, time 5.0 day
Staphylococcus aureus [36] = assay: Antibacterial activity against methicillin-resistant Staphylococcus aureus CGMCC1.12409 infected in mouse model assessed as reduction in bacterial load at infection site at 10 mg/kg measured for 5 days relative to control; format: functional; set-up: scale not given: the % may be the effect or the level left; conditions: time 5 day
Staphylococcus aureus [37] = assay: Antibacterial activity against methicillin-resistant Staphylococcus aureus ATCC 33591 in presence of Fe3+ (reference value: 1 ug/ml); format: functional
Staphylococcus aureus [38] = assay: Antibacterial activity against methicillin-resistant Staphylococcus aureus CGMCC1.12409 infected in mouse model assessed as reduction in skin lession in subcutaneous tissues at 10 mg/kg measured for 5 days; format: functional, organism-based; conditions: time 5.0 day
Staphylococcus aureus [39] = assay: Bactericidal activity against Staphylococcus aureus CGMCC1.8721 by CLSI based method; format: functional
[40] = Hemolytic activity in rabbit RBC; format: toxicity, cell-based, Oryctolagus cuniculus, Erythrocyte; conditions: rabbit red blood cells
Staphylococcus aureus [41] = assay: Antibacterial activity against Staphylococcus aureus CGMCC1.8721 in presence of phosphatidylethanolamine; format: functional, organism-based
Staphylococcus aureus [42] = assay: Antibacterial activity against Staphylococcus aureus CGMCC1.8721 at pH 6.5 (reference value: 0.5 ug/ml); format: functional
Staphylococcus aureus [43] = assay: Antibacterial activity against methicillin-resistant Staphylococcus aureus ATCC 33591; format: functional
Staphylococcus aureus [44] = assay: Induction of loss of membrane integrity in Staphylococcus aureus CGMCC1.8721 assessed as protein leakage; format: functional, organism-based
Staphylococcus aureus [45] = assay: Antibacterial activity against methicillin-resistant Staphylococcus aureus CGMCC1.12409 infected in mouse model assessed as reduction in bacterial clones at 5 to 10 mg/kg measured for 5 days; format: functional, organism-based; conditions: dose 5-10 mg/kg, time 5.0 day
Staphylococcus aureus [46] = assay: Antibacterial activity against methicillin-resistant Staphylococcus aureus ATCC 43300 in presence of Fe2+ (reference value: 0.5 ug/ml); format: functional

For `COc1ccc2[nH]c3c(CC[C@H](C)[C@H]4CC[C@H]5[C@@H]6[C@H](O)C[C@@H]7C[C@H](O)CC[C@]7(C)[C@H]6C[C@H](O)[C@]45C)[n+](Cc4ccc(Cl)cc4)ccc3c2c1.[Br-]`, the MIC (Staphylococcus aureus [1]) was 1 µg/mL, the Activity (Staphylococcus aureus [2]) was “Dose-dependent-effect” and the MBC (Staphylococcus aureus [3]) was 1 µg/mL. For the same molecule, the MIC (Staphylococcus aureus [4]) was 0.5 µg/mL, the Activity (Staphylococcus aureus [5]) was “Active” and the Activity (Staphylococcus aureus [6]) was “Active”. The MIC (Staphylococcus aureus [7]) was 0.5 µg/mL, the MIC (Staphylococcus aureus [8]) was 1 µg/mL and the MIC (Staphylococcus aureus [9]) was 1 µg/mL. The MIC (Staphylococcus aureus [10]) was 0.5 µg/mL, the Activity (Staphylococcus aureus [11]) was roughly 87% and the MIC (Staphylococcus aureus [12]) was 0.5 µg/mL. The Activity (Staphylococcus aureus [13]) was “Active”, the MIC (Staphylococcus aureus [14]) was 0.5 µg/mL and the inhibition (Staphylococcus aureus [15]) was “Dose-dependent-effect”. It also gave an MIC (Staphylococcus aureus [16]) of 0.5 µg/mL, an MIC (Staphylococcus aureus [17]) of 0.5 µg/mL and an MIC (Staphylococcus aureus [18]) of 1 µg/mL. The Activity (Staphylococcus aureus [19]) was “Dose-dependent-effect”, the MIC (Staphylococcus aureus [20]) was 1 µg/mL and the selectivity ratio [21] was greater than 256. For the same molecule, the MBC (Staphylococcus aureus [22]) was 2 µg/mL, the Activity (Staphylococcus aureus [23]) was “Active” and the MIC (Staphylococcus aureus [24]) was 0.5 µg/mL. The MIC (Staphylococcus aureus [25]) was 0.5 µg/mL, the Activity (HepG2) was “Non-toxic” and the MIC (Staphylococcus aureus [26]) was 1 µg/mL. It also gave an MIC (Staphylococcus aureus [27]) of 1 µg/mL, an MBC (Staphylococcus aureus [28]) of 1 µg/mL and an MIC (Staphylococcus aureus [29]) of 1 µg/mL. For the same molecule, the MIC (Staphylococcus aureus [30]) was 1 µg/mL, the MIC (Staphylococcus aureus [31]) was 0.5 µg/mL and the Activity (Staphylococcus aureus [32]) was “inactive”. For the same molecule, the MIC (Staphylococcus aureus [33]) was 0.5 µg/mL, the MIC (Staphylococcus aureus [34]) was 0.5 µg/mL and the Activity (Staphylococcus aureus [35]) was “Active”. For the same molecule, the Activity (Staphylococcus aureus [36]) was 98.55%, the MIC (Staphylococcus aureus [37]) was 1 µg/mL and the Activity (Staphylococcus aureus [38]) was “Active”. For the same molecule, the MBC (Staphylococcus aureus [39]) was 1 µg/mL, the HC50 [40] was greater than 256 µg/mL and the Activity (Staphylococcus aureus [41]) was “Active”. The MIC (Staphylococcus aureus [42]) was 0.5 µg/mL, the MIC (Staphylococcus aureus [43]) was 1 µg/mL and the Activity (Staphylococcus aureus [44]) was “Dose-dependent-effect”. The Activity (Staphylococcus aureus [45]) was “Active” and the MIC (Staphylococcus aureus [46]) was 0.5 µg/mL.
